Test results taken from ChEMBL document CHEMBL1147921, “SAR studies on thiazolo[4,5-d]pyrimidine based CXCR2 antagonists involving a novel tandem displacement reaction” (Bioorg Med Chem Lett, 2007).
Values after ≈ are worked out from the molar mass of the structure shown.

How the values were obtained:
[1] = Permeability across human Caco-2 cell membrane; assay type: ADME, cell-based; conditions: read-out: permeability
[2] = molecular target: T1, C-X-C chemokine receptor type 2 (Homo sapiens, UniProt P25025); assay: Antagonistic activity against human CXCR2 in neutrophils assessed as blockade of GROalpha stimulated calcium mobilisation by FLIPR; assay type: functional
T1 sequence (P25025 whole entry): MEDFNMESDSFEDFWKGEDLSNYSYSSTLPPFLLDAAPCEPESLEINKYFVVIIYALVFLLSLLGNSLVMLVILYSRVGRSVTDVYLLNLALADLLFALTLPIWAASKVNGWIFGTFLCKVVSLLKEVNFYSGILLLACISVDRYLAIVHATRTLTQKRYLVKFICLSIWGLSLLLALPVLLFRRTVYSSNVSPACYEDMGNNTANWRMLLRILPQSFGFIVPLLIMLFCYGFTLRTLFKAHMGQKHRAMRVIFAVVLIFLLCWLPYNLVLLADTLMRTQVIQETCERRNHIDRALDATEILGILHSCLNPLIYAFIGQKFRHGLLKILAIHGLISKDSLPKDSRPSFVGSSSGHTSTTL

[3] = molecular target: T1, C-X-C chemokine receptor type 2; assay: Displacement of [125I]IL8 from human CXCR2 expressed in HEK 293 by SPA; assay type: cell-based, HEK293
[4] = Protein binding in human plasma; assay type: ADME, cell-free; conditions: read-out: PPB (converted)
[5] = Half life in iv dosed rat; assay type: ADME, organism-based; conditions: in vivo
[6] = Bioavailability in po dosed rat; assay type: ADME, organism-based; conditions: in vivo
[7] = Permeability from basolateral to apical side of the human Caco-2 cell membrane; assay type: ADME, cell-based; conditions: read-out: permeability
[8] = Solubility at pH 7.4; assay type: physicochemical; conditions: buffer
[9] = Volume of distribution at steady state in iv dosed rat; assay type: ADME, organism-based; conditions: in vivo, read-out: Vss
[10] = Permeability from apical to basolateral side of the human Caco-2 cell membrane; assay type: ADME, cell-based; conditions: read-out: permeability

Row | IC50 [3] | Compound | also measured
1 | 25.1 nM | CC(C)(CO)Nc1nc(SCc2cccc(F)c2F)nc2nc(N)sc12 | Papp [1]: 3.6 ×10⁻⁶ cm/s; IC50 [2]: 15.8 nM; fraction unbound [4]: 0.016
2 | 15.8 nM | C[C@H](CO)Nc1nc(SCc2cccc(Cl)c2Cl)nc2nc(N)sc12 | 
3 | 100 nM | CC[C@H](CO)Nc1nc(SCc2cccc(F)c2F)nc2nc(NC(C)C)sc12 | 
4 | 126 nM | Cc1nc(CSc2nc(N[C@H](C)CO)c3sc(N)nc3n2)cs1 | 
5 | 15.8 nM | C[C@@H](O)[C@@H](CO)Nc1nc(SCc2cccc(F)c2F)nc2nc(N)sc12 | 
6 | 12.6 nM | C[C@H](CO)Nc1nc(SCc2ccccc2F)nc2nc(N)sc12 | 
7 | 31.6 nM | C[C@H](CO)Nc1nc(SCc2ccco2)nc2nc(N)sc12 | 
8 | 20 nM | C[C@H](CO)Nc1nc(SCc2cccc(F)c2F)nc2nc(NC3CC3)sc12 | 
9 | 15.8 nM | C[C@H](CO)Nc1nc(SCc2cccc(F)c2)nc2nc(N)sc12 | 
10 | 12.6 nM | C[C@H](CO)Nc1nc(SCc2cccc(Cl)c2)nc2nc(N)sc12 | 
11 |  | C[C@H](CO)Nc1nc(SCc2cccc(F)c2F)nc2nc(N)sc12 | half-life [5]: 1.2 h; bioavailability [6]: 9%; Papp B→A [7]: 13.7 ×10⁻⁶ cm/s; solubility [8]: 1.5 µg/mL (≈ 3.91 µM); Vd [9]: 1.03 L/kg; Papp A→B [10]: 2.47 ×10⁻⁶ cm/s
12 | 100 nM | OCC(CO)Nc1nc(SCc2cccc(F)c2F)nc2nc(NC3CC3)sc12 | 
13 | 25.1 nM | CC[C@H](CO)Nc1nc(SCc2cccc(F)c2F)nc2nc(N)sc12 | 
14 | 31.6 nM | Nc1nc2nc(SCc3cccc(F)c3F)nc(NC(CO)CO)c2s1 | 
15 | 31.6 nM | CC(C)Nc1nc2nc(SCc3cccc(F)c3F)nc(N[C@H](C)CO)c2s1 | 
16 | 100 nM | CC(C)(CO)Nc1nc(SCc2ccco2)nc2nc(N)sc12 | 
17 | 79.4 nM | CC(CO)(CO)Nc1nc(SCc2cccc(F)c2F)nc2nc(N)sc12 | 
18 | 398 nM | CCN(CC)c1nc2nc(SCc3cccc(F)c3F)nc(N[C@H](C)CO)c2s1 | 
19 | 31.6 nM | C[C@H](CO)Nc1nc(SCc2ccccc2Cl)nc2nc(N)sc12 | 
20 | 3.98 nM | C[C@H](CO)Nc1nc(SCc2cccc(Cl)c2F)nc2nc(N)sc12 | 
21 | 1580 nM | CCN(CC)c1nc2nc(SCc3cccc(F)c3F)nc(NC(CO)CO)c2s1 | 
22 | > 1000 nM | Nc1nc2nc(SCc3cccc(F)c3F)nc(N3CCCC3CO)c2s1 (configuration not stated) | 
23 | 7.94 nM | CNc1nc2nc(SCc3cccc(F)c3F)nc(N[C@H](C)CO)c2s1 | 
24 | 1000 nM | Cc1nc(CSc2nc(NC(C)(C)CO)c3sc(N)nc3n2)cs1 | 
